The nature of data set [1]: CNP immunoreactivity concentration in plasma, half-life after intravenous administration (Example 9). As to conditions: male, SD, rat, in vivo, 20 nmol/kg.
Data set [2] can be described thus: CNP immunoreactivity concentration in plasma after administration to rats (competitive RIA), pharmacokinetic parameters (Example 2). It counts as in vivo, rat. The following applies: for half-life: read-out: T½. Here is the method:
Pharmacokinetic parameters were calculated from the resulting changes in immunoreactivity concentrations in plasma. At that time, WinNonlin Professional Ver. 4.0.1 (manufactured by Pharsight Corporation, U.S.A.) was used as the analytical software. Method for the calculation of each parameter is mentioned as follows.
Concentration at time 0 (C0; extrapolated value, ng/mL), area under the curve for concentration in plasma vs. time (AUC; ng.min/mL) and quenching half-life (T½; minute(s)) were calculated as follows. C0 was calculated as a value at time by means of extrapolation from the changes in immunoreactivity concentration in plasma at each blood collection period. AUC was calculated by a trapezoidal method using the immunoreactivity concentrations in plasma at all measuring points (t) and an extrapolated value until the infinitive time was determined. T½ was calculated by means of a least-squares method from the inclination of a straight line connecting several points in a disappearing phase of the immunoreactivity concentration in plasma. In the case of a subcutaneous administration, C0 was not determined but the maximum concentration in plasma (Cmax; ng/mL) and the time reaching the maximum concentration in plasma (Tmax; min) were determined.
Changes in CNP immunoreactivity concentration in plasma of native CNP-22 and chimeric peptide (chimeric CNP) where a half-life-extension peptide was added to CNP were investigated.
The experiment was conducted in the same manner as in Example 1 that rats where polyethylene tube was previously inserted into thigh artery were used under an anesthetizing condition with Nembutal and male SD strain rats of 7 weeks age (purchased from Nippon Charles River) were used where one group comprised 3 rats. […] At that time, a rabbit polyclonal antibody (#2) recognizing a ring part of native CNP-22 was used as an antibody and ^125I-[Tyr^0] CNP was used as a labeling compound. Pharmacokinetic analysis was carried out by the same method as in Example 1.

The target of data set [3] is T1, neutral endopeptidase (NEP) (Homo sapiens, UniProt P08473).
T1 construct: purchased R&D Systems, Inc., U.S.A
T1 sequence (P08473 whole entry): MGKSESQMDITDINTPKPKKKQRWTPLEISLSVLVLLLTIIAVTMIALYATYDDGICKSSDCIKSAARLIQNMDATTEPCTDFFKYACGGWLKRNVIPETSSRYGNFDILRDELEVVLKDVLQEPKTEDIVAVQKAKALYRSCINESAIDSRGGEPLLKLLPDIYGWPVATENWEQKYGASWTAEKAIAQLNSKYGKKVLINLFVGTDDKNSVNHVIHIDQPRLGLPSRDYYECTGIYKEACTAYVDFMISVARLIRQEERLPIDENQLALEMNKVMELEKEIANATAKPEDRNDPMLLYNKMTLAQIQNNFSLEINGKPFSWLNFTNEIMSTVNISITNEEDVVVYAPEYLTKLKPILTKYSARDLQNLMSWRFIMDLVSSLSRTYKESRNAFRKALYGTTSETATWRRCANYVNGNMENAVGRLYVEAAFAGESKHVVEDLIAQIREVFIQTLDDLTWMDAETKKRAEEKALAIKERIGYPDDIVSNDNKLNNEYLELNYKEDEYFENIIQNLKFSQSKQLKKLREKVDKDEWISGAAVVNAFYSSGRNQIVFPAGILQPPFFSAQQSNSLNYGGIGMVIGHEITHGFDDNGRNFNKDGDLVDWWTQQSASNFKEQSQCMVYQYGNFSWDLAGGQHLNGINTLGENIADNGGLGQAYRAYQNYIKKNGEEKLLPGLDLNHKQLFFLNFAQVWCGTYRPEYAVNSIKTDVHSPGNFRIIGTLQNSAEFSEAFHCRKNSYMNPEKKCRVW
Nature of the data set: Resistance to peptidase: stability to hNEP (HPLC residual rate). It counts as in vitro ADME. The following applies: human, isolated enzyme neprilysin; hNEP, 37° C., 1 hour, 0.5 μg/mL, 20 mM MES pH 6.5, mean of N = 2; read-out: Residual Rate. Here is the method: The experiment was conducted in N=2 for each sample. Native CNP-22, chimeric CNP (A, B) (structure mentioned already; final concentration: 0.5 μg/mL) and 100 μL of reaction solution (medium: 20 mM MES, pH 6.5) of human type recombinant neutral endopeptidase (hNEP, manufactured by R&D Systems, Inc., U.S.A.) were prepared. […] Distilled water (100 μL) was added to the sample after boiling followed by well mixing and 50 μL thereof was analyzed in a water-acetonitrile system using a high-performance liquid chromatography system LC-10A (manufactured by Shimadzu). The analytical data were analyzed by a Chromato-Pack (CRA-10A, manufactured by Shimadzu) and area of the peak zone of unchanged substance was calculated. The area of average zone of unchanged substance when made to react at 37° C. was divided by the area of average zone of the boiled sample to calculate the residual rate of the unchanged substance after 1 hour.

A further data set deals with T2, NEP (Rattus norvegicus, UniProt P07861).
T2 construct: male SD strain rats of 7 weeks age (Nippon Charles River; body weight: ca. 250 g) were used; from tissue; host or cells: whole animal: male SD rats (Nippon Charles River), in vivo
T2 sequence (P07861 1-750): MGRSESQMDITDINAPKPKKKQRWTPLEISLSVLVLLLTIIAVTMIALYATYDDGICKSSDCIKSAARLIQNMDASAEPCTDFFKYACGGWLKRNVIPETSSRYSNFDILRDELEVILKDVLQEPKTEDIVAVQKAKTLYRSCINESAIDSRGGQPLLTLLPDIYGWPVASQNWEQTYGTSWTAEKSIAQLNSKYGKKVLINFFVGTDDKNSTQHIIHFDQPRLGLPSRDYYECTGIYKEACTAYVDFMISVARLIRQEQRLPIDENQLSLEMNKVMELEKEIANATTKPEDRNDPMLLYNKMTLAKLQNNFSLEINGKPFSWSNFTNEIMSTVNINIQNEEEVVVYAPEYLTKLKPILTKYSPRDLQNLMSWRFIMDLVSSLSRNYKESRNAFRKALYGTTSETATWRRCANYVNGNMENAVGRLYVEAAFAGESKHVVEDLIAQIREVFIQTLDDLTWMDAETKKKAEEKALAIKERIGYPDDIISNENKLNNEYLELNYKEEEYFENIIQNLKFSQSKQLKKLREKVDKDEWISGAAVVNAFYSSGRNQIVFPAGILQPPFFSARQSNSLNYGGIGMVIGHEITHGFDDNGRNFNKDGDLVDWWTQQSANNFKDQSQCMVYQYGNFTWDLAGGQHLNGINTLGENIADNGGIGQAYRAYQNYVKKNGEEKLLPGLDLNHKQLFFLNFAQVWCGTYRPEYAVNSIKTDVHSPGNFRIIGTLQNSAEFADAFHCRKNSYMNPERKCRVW
As to the kind of experiment: NEP resistance in vivo: influence of NEP inhibitor on pharmacokinetic parameters after intravenous administration. As to conditions: for AUC(0-inf) / C0 / half-life: male, SD, rat, in vivo, iv, 0.02 mg/kg, intravenous 0.02 mg/kg, male rats, N = 3; for AUC(0-inf): read-out: AUC0→∞ (converted); for C0: read-out: C0; for half-life: read-out: T½. Here is the method:
Further, NEP resistance in vivo of the native CNP-22 and chimeric CNP (B) was evaluated using the effect by the joint use with an NEP inhibitor affecting on changes in CNP immunoreactivity concentration in plasma after the intravenous administration as an index. This test was also carried out using rats into which a polyethylene tube (PE-50, manufactured by Clay […].) was inserted into thigh artery for collection of blood and rats into which a polyethylene tube (PE-10, manufactured by Clay […].) was inserted into thigh vein for administration of an NEP inhibitor under an anesthetizing condition using Nembutal. As a test system, male SD strain rats of 7 weeks age (Nippon Charles River; body weight: ca. 250 g) were used for the experiment where one group comprised 3 rats. […] Time for the administration was from 10 minutes before the administration of the native CNP-22 or the chimeric CNP (B) to completion of blood collection which was 60 minutes after the administration. The native CNP-22 and the chimeric CNP (B) each was administered into the tail vein in a dose of 20 μg/kg and the blood before starting the administration of NEP inhibitor (-10 minutes), before the administration of CNP (0 minute) and until after 60 minutes from the administration was collected by a thigh artery cannula. After a stabilizer and an anticoagulant were added to the collected blood, it was centrifuged to give plasma and the immunoreactivity concentration in the plasma was measured by the above-mentioned competitive RIA. The pharmacokinetic analysis was carried out by the same method as in Example 1.

Setting [4] is: rat, plasma, sc, subcutaneous, 0.1 mg/kg, male rats, N = 3, mean ± SD.
The mark [5] stands for this setting: rat, plasma, intravenous, 0.1 mg/kg, male rats, N = 3, mean ± SD.

The values below come from patent US8551937B2, “Peptide having an extending action for half-life of object peptide in plasma” (priority 2008, dated 2013).

Where two headings read alike, the source gives them in different places.

One may read the Cmax as the peak of the concentration-time curve. A word on the Tmax: it is the time at which the peak concentration occurs.

For the compound `CC[C@H](C)[C@@H]1NC(=O)[C@H](CCCNC(=N)N)NC(=O)[C@H](CC(=O)O)NC(=O)[C@H](CC(C)C)NC(=O)[C@H](CCCCN)NC(=O)[C@H](CC(C)C)NC(=O)CNC(=O)[C@H](Cc2ccccc2)NC(=O)[C@@H](NC(=O)CNC(=O)[C@H](CCCCN)NC(=O)[C@H](CO)NC(=O)[C@H](CC(C)C)NC(=O)CN)CSSC[C@@H](C(=O)O)NC(=O)CNC(=O)[C@H](CC(C)C)NC(=O)CNC(=O)[C@H](CO)NC(=O)[C@H](CCSC)NC(=O)[C@H](CO)NC(=O)CNC1=O` [Native CNP-22], the half-life in data set [1] came out at 1.6 min; in data set [2] (setting [4]), 7.8 ± 0.9 min; in data set [2] (setting [5]), 2.93 ± 0.23 min; on NEP (NEP Inhibitor (+)) it was 9.94 ± 1.4 min; on NEP (NEP Inhibitor (−)), 1.96 ± 0.05 min. For the same compound, the AUC(0-inf) was 0.0177 µg·h/mL in data set [2] (setting [4]), 0.0256 µg·h/mL in data set [2] (setting [5]), 0.0126 µg·h/mL at NEP (NEP Inhibitor (+)) and 0.00337 µg·h/mL at NEP (NEP Inhibitor (−)). Further, in data set [2] (setting [4]), the Cmax turned out to be 0.0556 ± 0.0045 µg/mL. Moreover, in data set [2] (setting [4]), the Tmax is 5 min. Moreover, the C0 in data set [2] (rat, plasma, intravenous, 0.1 mg/kg, male rats, N = 3, mean ± SD, extrapolated value) was 1.02 ± 0.273 µg/mL; at NEP (NEP Inhibitor (+)), 0.131 ± 0.032 µg/mL; on NEP (NEP Inhibitor (−)), 0.145 ± 0.02 µg/mL. For the same compound, the “CNP immunoreactivity concentration in plasma” value in data set [2] (subcutaneous, after 60 minutes from the administration) is “almost disappeared”. In data set [3], the remaining at 1 h, 0.5 μg/mL came out at 16.7%. Also, the “AUC with NEP inhibitor as compared with the case where the inhibitor was not used” value on NEP (intravenous, rats) is on record as “about 3.7 fold”. The “half-life with NEP inhibitor as compared with the case where the inhibitor was not used” value on NEP (intravenous, rats) is “about 5 fold”.
